From Sander's compilation of Henry's law constants (doi:10.1021/es00099a010)

Assay: Henry solubility constant Hcp at 298.15 K (mol/(m3 Pa))
Details: reference: Atlas et al. (1982)

Point of comparison: `Clc1cccc(-c2cccc(Cl)c2Cl)c1` [2,3,3'-trichlorobiphenyl], “Henry solubility constant Hcp” value 0.012. Against it:
- ClC(Cl)=C(c1ccc(Cl)cc1)c1ccc(Cl)cc1 [1,1-dichloro-2,2-bis-(4-chlorophenyl)-ethene] — lower, 0.0081
- Clc1ccc(Cl)c(-c2cccc(Cl)c2Cl)c1 [2,2',3,5'-tetrachlorobiphenyl] — higher, 0.013
- Clc1ccccc1-c1cccc(Cl)c1Cl [2,2',3-trichlorobiphenyl] — the same, 0.012
- Clc1cc(Cl)c(-c2ccccc2Cl)c(Cl)c1 [2,2',4,6-tetrachlorobiphenyl] — higher, 0.013
- Clc1ccc(Cl)c(-c2cc(Cl)ccc2Cl)c1 [2,2',5,5'-tetrachlorobiphenyl] — lower, 0.011
- Clc1ccc(Cl)c(-c2ccccc2Cl)c1 [2,2',5-trichlorobiphenyl] — lower, 0.0099
- Clc1ccc(-c2ccc(Cl)c(Cl)c2Cl)cc1 [2,3,4,4'-tetrachlorobiphenyl] — the same, 0.012
- Clc1ccc(-c2cc(Cl)ccc2Cl)cc1 [2,4',5-trichlorobiphenyl] — lower, 0.011
- Clc1ccc(-c2ccccc2Cl)cc1 [2,4'-dichlorobiphenyl] — lower, 0.01
- Clc1ccc(-c2ccc(Cl)c(Cl)c2)cc1 [3,4,4'-trichlorobiphenyl] — the same, 0.012
- ClC1=C(Cl)[C@]2(Cl)[C@@H]3[C@@H](Cl)[C@@H](Cl)C[C@@H]3[C@@]1(Cl)C2(Cl)Cl [cis-chlordane] — lower, 0.011
- ClC1=C(Cl)[C@]2(Cl)[C@H]3[C@H](Cl)[C@@H](Cl)C[C@H]3[C@@]1(Cl)C2(Cl)Cl [trans-chlordane] — lower, 0.0074
- ClC1C(Cl)C(Cl)C(Cl)C(Cl)C1Cl (stereo not drawn) [α-1,2,3,4,5,6-hexachlorocyclohexane] — higher, 0.42
